According to ChEMBL document CHEMBL1909046, “DrugMatrix in vitro pharmacology data”:

Legend:
[1] = biological target: T1, Angiotensin-converting enzyme (Oryctolagus cuniculus, UniProt P12822); format: tissue-based, Lung;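 note: enzymatic inhibition of angiotensin-converting enzyme measured with FAPGG as the substrate; in other assays of this panel Not Active means under 50% inhibition at 10 µM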
T1 sequence (P12822 whole entry): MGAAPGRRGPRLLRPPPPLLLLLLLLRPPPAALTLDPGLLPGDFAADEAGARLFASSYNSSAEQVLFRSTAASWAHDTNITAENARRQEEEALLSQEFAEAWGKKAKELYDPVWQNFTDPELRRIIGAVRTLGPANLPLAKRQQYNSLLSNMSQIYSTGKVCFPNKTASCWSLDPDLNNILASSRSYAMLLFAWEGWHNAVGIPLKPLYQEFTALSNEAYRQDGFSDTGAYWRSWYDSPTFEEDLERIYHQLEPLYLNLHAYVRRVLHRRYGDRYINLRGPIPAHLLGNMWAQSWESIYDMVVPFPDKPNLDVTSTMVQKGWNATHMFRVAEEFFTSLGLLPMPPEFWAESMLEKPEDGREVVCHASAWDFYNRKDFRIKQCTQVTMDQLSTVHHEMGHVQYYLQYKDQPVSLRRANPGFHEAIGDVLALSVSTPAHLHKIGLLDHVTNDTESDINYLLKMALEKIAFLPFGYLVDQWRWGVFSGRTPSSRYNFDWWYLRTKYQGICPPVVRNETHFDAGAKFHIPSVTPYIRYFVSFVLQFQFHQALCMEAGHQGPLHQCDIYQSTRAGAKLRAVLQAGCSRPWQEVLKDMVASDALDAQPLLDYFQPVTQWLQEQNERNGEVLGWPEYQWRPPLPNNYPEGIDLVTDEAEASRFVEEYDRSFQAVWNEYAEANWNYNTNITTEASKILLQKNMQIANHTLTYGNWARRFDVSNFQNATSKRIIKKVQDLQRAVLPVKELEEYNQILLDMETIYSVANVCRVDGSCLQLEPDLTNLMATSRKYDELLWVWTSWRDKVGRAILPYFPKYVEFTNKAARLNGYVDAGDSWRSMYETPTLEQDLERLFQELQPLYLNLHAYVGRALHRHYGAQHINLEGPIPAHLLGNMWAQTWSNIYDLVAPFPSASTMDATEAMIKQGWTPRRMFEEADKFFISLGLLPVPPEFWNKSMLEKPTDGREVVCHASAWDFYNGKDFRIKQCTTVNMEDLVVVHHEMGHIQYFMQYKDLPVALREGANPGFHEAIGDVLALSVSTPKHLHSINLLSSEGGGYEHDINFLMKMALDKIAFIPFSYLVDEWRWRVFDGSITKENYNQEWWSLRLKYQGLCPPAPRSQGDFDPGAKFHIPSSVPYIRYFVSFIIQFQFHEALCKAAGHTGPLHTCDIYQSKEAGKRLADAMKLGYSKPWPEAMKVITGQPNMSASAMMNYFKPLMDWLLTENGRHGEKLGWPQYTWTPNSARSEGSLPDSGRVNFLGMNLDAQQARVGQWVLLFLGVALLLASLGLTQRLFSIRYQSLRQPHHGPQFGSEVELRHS

Endothelin-1 receptor = biological target: T2, Endothelin-1 receptor (Homo sapiens, UniProt P25101); format: cell membranes, CHO-K1, Membrane; note: in other assays of this panel Not Active means under 50% inhibition at 10 µM
T2 sequence (P25101 whole entry): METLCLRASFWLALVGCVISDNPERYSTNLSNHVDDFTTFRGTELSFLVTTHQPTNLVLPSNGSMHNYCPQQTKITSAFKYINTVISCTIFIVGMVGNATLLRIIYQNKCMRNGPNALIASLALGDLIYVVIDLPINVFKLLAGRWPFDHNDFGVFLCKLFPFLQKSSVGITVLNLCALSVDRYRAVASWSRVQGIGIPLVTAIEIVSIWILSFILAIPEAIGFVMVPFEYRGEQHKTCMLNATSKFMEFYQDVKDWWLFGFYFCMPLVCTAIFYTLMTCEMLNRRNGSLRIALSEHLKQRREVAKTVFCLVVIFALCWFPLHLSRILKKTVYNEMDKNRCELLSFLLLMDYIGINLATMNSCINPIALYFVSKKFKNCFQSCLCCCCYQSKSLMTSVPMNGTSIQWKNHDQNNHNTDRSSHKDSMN

[2] = biological target: 5-hydroxytryptamine receptor 2B (Homo sapiens, UniProt P41595); format: cell membranes, CHO-K1, Membrane; settings: cho-k1; note: in other assays of this panel Not Active means under 50% inhibition at 10 µM
Chain of 5-hydroxytryptamine receptor 2B (P41595 whole entry): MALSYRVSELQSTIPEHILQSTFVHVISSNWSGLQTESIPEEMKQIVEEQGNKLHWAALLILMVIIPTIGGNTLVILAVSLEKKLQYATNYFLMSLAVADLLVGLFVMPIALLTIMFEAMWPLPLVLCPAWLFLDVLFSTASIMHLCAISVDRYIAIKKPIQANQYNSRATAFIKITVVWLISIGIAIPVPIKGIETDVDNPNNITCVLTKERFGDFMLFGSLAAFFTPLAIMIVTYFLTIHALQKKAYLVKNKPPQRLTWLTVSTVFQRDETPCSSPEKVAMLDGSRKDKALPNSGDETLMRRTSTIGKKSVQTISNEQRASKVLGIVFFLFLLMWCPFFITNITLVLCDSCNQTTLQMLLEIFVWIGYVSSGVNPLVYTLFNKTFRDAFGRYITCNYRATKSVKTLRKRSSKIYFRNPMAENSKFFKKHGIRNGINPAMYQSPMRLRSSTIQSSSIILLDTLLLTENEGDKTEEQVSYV

[3] = biological target: Matrix metalloproteinase-9 (Homo sapiens, UniProt P14780); experiment: biochemical; format: cell-based;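 note: inhibition of isolated MMP-9 enzyme activity toward a synthetic peptide substrate, from the DrugMatrix protease screening panel; in other assays of this panel Not Active means under 50% inhibition at 10 µM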
Chain of Matrix metalloproteinase-9 (P14780 whole entry): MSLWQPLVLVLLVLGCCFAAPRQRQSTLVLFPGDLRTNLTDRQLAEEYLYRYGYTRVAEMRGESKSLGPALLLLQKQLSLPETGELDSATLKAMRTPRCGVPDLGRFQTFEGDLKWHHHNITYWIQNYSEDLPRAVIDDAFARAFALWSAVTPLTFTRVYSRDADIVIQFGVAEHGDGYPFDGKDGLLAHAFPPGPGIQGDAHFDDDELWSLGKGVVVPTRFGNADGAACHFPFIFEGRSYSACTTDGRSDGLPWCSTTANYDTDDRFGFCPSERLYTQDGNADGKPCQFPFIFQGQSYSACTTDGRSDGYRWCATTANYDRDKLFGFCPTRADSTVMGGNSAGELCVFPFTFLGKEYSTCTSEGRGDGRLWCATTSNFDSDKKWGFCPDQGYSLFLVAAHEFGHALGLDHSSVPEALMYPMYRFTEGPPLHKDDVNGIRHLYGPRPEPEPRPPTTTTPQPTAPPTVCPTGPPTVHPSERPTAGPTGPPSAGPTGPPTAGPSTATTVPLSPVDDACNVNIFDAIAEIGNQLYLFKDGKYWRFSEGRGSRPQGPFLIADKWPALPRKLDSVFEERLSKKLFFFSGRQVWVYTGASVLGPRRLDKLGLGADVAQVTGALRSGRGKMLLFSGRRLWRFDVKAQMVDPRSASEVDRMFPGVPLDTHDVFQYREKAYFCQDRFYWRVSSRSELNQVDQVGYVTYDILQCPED

[4] = biological target: Kappa-type opioid receptor (Homo sapiens, UniProt P41145); experiment: DRUGMATRIX: Opiate kappa (OP2, KOP) radioligand binding (ligand: [3H] Diprenorphine); format: cell membranes, HEK293, Membrane; settings: Not Active = under 50% inhibition at 10 µM
Chain of Kappa-type opioid receptor (P41145 whole entry): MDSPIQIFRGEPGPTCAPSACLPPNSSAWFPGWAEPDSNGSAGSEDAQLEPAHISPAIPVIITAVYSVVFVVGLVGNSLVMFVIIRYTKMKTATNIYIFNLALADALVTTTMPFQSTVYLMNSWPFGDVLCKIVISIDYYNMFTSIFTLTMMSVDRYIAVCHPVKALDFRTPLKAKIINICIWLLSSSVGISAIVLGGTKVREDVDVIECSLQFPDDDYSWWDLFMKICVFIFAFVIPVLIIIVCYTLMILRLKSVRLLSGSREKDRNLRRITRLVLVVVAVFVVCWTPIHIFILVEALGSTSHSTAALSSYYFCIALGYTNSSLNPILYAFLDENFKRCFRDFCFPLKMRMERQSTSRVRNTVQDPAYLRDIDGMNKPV

Cytochrome P450 2C19 = Cytochrome P450 2C19 (Homo sapiens, UniProt P33261); settings: bti-tn-5b1-4; note: in other assays of this panel Not Active means under 50% inhibition at 10 µM
Chain of Cytochrome P450 2C19 (P33261 whole entry): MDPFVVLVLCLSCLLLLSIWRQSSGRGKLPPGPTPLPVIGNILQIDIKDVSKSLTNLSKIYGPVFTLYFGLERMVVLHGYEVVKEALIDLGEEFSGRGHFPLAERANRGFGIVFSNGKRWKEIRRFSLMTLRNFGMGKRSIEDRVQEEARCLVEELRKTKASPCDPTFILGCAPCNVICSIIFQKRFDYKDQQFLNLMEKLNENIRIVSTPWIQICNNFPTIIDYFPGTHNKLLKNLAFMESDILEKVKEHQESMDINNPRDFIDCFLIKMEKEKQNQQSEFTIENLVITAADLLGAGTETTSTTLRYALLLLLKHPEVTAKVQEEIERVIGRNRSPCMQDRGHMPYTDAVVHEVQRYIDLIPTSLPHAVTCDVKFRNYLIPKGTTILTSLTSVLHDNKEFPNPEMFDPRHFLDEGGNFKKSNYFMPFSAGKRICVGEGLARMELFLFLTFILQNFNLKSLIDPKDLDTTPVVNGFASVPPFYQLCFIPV

[5] = biological target: T3, 3-hydroxy-3-methylglutaryl-coenzyme A reductase (Homo sapiens, UniProt P04035); set-up: species or system Escherichia coli
T3 sequence (P04035 whole entry): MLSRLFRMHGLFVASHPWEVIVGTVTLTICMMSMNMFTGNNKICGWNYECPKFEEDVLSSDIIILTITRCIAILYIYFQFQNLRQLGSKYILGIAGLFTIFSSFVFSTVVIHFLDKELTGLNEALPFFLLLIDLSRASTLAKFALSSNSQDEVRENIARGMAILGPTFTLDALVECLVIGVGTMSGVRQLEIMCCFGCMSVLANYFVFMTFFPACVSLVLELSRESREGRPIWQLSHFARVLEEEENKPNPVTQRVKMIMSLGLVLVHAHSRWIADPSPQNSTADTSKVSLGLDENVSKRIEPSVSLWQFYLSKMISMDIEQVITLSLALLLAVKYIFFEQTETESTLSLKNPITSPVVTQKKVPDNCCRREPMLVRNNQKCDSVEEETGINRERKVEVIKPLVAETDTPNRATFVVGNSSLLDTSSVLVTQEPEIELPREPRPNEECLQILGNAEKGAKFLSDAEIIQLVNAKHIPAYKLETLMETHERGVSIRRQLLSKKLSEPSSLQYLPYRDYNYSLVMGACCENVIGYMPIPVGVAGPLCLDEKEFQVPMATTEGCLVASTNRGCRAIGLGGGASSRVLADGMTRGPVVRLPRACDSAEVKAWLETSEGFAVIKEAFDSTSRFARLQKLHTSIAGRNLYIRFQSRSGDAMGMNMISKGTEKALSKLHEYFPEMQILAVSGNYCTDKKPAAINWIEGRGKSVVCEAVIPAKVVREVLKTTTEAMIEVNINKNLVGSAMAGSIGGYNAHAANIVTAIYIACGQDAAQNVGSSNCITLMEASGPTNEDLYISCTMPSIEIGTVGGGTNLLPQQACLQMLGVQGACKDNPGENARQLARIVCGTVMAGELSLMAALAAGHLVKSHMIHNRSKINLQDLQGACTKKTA

Compound	IC50 [1]	IC50 (Endothelin-1 receptor; cho-k1)	IC50 [2]	IC50 [3]	Ki [4] [µM]	IC50 ([4]; read-out: IC50) [µM]	IC50 (Cytochrome P450 2C19)	Ki (Cytochrome P450 2C19)	IC50 [5]	IC50 ([4]; hek293)	IC50 (Endothelin-1 receptor; read-out: IC50) [µM]	Ki (Endothelin-1 receptor; read-out: Ki) [µM]
CC(C)(C)NC(=O)[C@@H]1C[C@@H]2CCCC[C@@H]2CN1C[C@@H](O)[C@H](Cc1ccccc1)NC(=O)[C@H](CC(N)=O)NC(=O)c1ccc2ccccc2n1	Not Active	Not Active	Not Active	Not Active	2.78	6.95	Not Active	Not Active	Not Active	–	–	–
CC(=O)[C@@]1(O)CC[C@H]2[C@@H]3C[C@H](C)C4=CC(=O)CC[C@]4(C)[C@H]3CC[C@@]21C	Not Active	Not Active	Not Active	Not Active	–	–	–	–	Not Active	Not Active	–	–
N[C@@H](Cc1ccc(N(CCCl)CCCl)cc1)C(=O)O	Not Active	Not Active	Not Active	Not Active	–	–	Not Active	Not Active	Not Active	–	–	–
CCCCc1oc2ccccc2c1C(=O)c1cc(I)c(OCCN(CC)CC)c(I)c1 [AMIODARONE]	Not Active	–	–	Not Active	–	–	–	–	Not Active	–	26.3	16.2
OCCN(CCO)c1nc(N2CCCCC2)c2nc(N(CCO)CCO)nc(N3CCCCC3)c2n1 [DIPYRIDAMOLE]	Not Active	Not Active	Not Active	Not Active	–	–	Not Active	Not Active	Not Active	Not Active	–	–
Cc1oncc1C(=O)Nc1ccc(C(F)(F)F)cc1 [LEFLUNOMIDE]	Not Active	Not Active	Not Active	Not Active	–	–	Not Active	Not Active	Not Active	Not Active	–	–
c1ccc([C@H]2CN3CCSC3=N2)cc1 [LEVAMISOLE]	Not Active	Not Active	Not Active	Not Active	–	–	Not Active	Not Active	Not Active	Not Active	–	–
N[C@@H](Cc1ccc(O)c(O)c1)C(=O)O [LEVODOPA]	Not Active	Not Active	Not Active	Not Active	–	–	Not Active	Not Active	Not Active	Not Active	–	–
N[C@@H](Cc1cc(I)c(Oc2ccc(O)c(I)c2)c(I)c1)C(=O)O [LIOTHYRONINE]	Not Active	Not Active	Not Active	Not Active	–	–	Not Active	Not Active	Not Active	Not Active	–	–
O=NN(CCCl)C(=O)NC1CCCCC1 [LOMUSTINE]	Not Active	Not Active	Not Active	Not Active	–	–	Not Active	Not Active	Not Active	Not Active	–	–
